Assay results from patent publication US20060160791A1, “Wood preservative formulations” (priority 1999, published 2006).

Test system: soft rot fungi belonging to the groups Ascomycotina and Deuteromycotina
Assay: Soft rot soil burial test on treated beech blocks (similar to ENV-807, toxic limits per EN113)
Details: for Toxic Limit Value: active ingredient retention, beech blocks, John Innes No. 2 compost, 14 weeks at 28° C, lower-upper limits spanning pass/fail (>3% mass loss); for Effective Retention of Tebuconazole: tebuconazole retention needed
Excerpt: The toxic limit value for a particular biocidal compound is the concentration of the compound which is required to prevent degradation (defined as >3% mass loss) of a substrate by a target organism. Toxic limits are normally expressed as two experimentally-determined concentrations that span the pass/fail point of the test. The toxic index is the midpoint of these two values.
A convenient method of assessing the synergistic properties of a formulation is to use a ‘synergistic index’. This may be defined as: [formula]
The theoretical toxic index may be calculated by interpolation to the theoretical line of action. A SI of 1 indicates no synergism. As the SI increases, so the degree of synergism also increases.
Testing was carried out to determine the performance of active ingredients alone and in mixture using a soft rot soil burial method.
Beech (Fagus sylvatica) blocks measuring 5×5×30 mm were prepared from local grown, seasoned, knot-free sapwood. After oven drying and weighing, the blocks were vacuum impregnated (in groups of 6 replicates) with retentions of the test preservatives which had been freshly prepared using deionised water as the diluent.
After treatment, the blocks were covered with polythene for a period of one week to reduce the drying rate and allow any fixation reactions to occur. They were then fully ventilated by standing on the laboratory bench for 2 weeks and allowed to dry.
Each series of blocks was then exposed in John Innes (No. 2) compost, previously wetted to 110% of water holding capacity using deionised water. The test systems were then incubated for 14 weeks at 28° C.
Following incubation, blocks were removed from the soil, gently rinsed in clean water and then oven dried and re-weighed.
Preservative retention and weight change data were calculated for each block and the results expressed as toxic limit values according to the criteria laid down in the test method EN113.
Where the lower toxic limit value provides a weight loss of 10% m/m or greater, then the upper toxic limit value has been used to indicate the probable effective retention of preservative; this is in accordance with EN113.

[O-][S+]1CCON=C1c1cc2ccccc2s1 (stereo not shown) [Bethoxazin, 3-(benzo[b]thien-2-yl)-5,6-dihydro-1,4,2-oxathiazine 4-oxide]
Toxic Limit Value: >0.77 kgm^−3
Effective Retention of Bethoxazin (bethoxazin retention needed, alone or as part of the named mixture, EN113 conventions): >0.77 kgm^−3

CC(C1CC1)C(O)(Cn1cncn1)c1ccc(Cl)cc1 (stereo not drawn) [Cyproconazole, (2RS,3RS; 2RS,3SR)-2-(4-chlorophenyl)-3-cyclopropyl-1-(1H-1,2,4-triazol-1-yl)butan-2-ol]
Effective Retention of Cyproconazole (cyproconazole retention needed, alone or as part of the named mixture, EN113 conventions): 1.25 kgm^−3

CCCC1COC(Cn2cncn2)(c2ccc(Cl)cc2Cl)O1 (stereo not shown) [Propiconazole, 1-[[2-(2-4-dichlorophenyl)-4-propyl-1,3-dioxolan-2-yl]methyl]-1H-1,2,4-triazole]
Toxic Limit Value: >7.0 kgm^−3
Effective Retention of Propiconazole (propiconazole retention needed, alone or as part of the named mixture, EN113 conventions): >7.0 kgm^−3

CC(C)(C)C(O)(CCc1ccc(Cl)cc1)Cn1cncn1 (stereo not drawn) [Tebuconazole, alpha-[2-(4-chlorophenyl)ethyl]-alpha(1,1-dimethylethyl)-1H-1,2,4-triazole-1-ethanol]
Toxic Limit Value: >7.0 kgm^−3
Effective Retention of Tebuconazole (alone or as part of the named mixture, EN113 conventions): >7.0 kgm^−3
Effective Retention of Tebuconazole (alone or as part of the named mixture, EN113 conventions, listed as tebuconazole): > 7 kgm^−3

N,N-didecyl-N-methyl-poly(oxyethyl)ammonium propionate [Bardap 26]
Effective Retention of Bardap 26 (Bardap 26 retention needed, alone or as part of the named mixture, EN113 conventions): >6.2 kgm^−3
Toxic Limit Value: >6.2 kgm^−3
